Among the data in ChEMBL document CHEMBL1129166, “Design and synthesis of novel, pseudo C2 symmetric inhibitors of HIV protease” (Bioorg Med Chem Lett, 1996) are IC50 and inhibition values, retold here.

Test [1] addresses Human immunodeficiency virus type 1 protease (Human immunodeficiency virus 1, UniProt Q72874). Kind of test: Compound was evaluated for the inhibition of HIV protease.
Test [2] deals with Human immunodeficiency virus type 1 protease (Human immunodeficiency virus 1) (UniProt Q72874). Kind of test: Compound was evaluated for the inhibition of HIV protease at 0.5 uM.

`CC(C)[C@H](NC(=O)OCc1ccccc1)C(=O)N[C@@H](Cc1ccccc1)CC1(C[C@H](Cc2ccccc2)NC(=O)[C@@H](NC(=O)OCc2ccccc2)C(C)C)CCC(=O)N1` came in with an IC50 in test [1] of 2700 nM. With `CC(C)(C)OC(=O)N[C@H](CC[C@H](O)[C@H](Cc1ccccc1)NC(=O)OC(C)(C)C)Cc1ccccc1`, in test [1], inhibition was half-maximal at 380 nM (IC50). In turn, `CC(C)C(NC(=O)OCc1ccccc1)C(=O)N[C@@H](Cc1ccccc1)CC(C[C@H](Cc1ccccc1)NC(=O)C(NC(=O)OCc1ccccc1)C(C)C)[N+](=O)[O-]` (stereo not given in full) yielded an IC50 in test [1] of 1500 nM. As to `CC(C)[C@H](NC(=O)N(C)Cc1ccccn1)C(=O)N[C@@H](Cc1ccccc1)[C@H](O)[C@H](O)[C@H](Cc1ccccc1)NC(=O)[C@@H](NC(=O)N(C)Cc1ccccn1)C(C)C` [A-77003], the IC50 in test [1] is over 1 nM. For the same molecule, the inhibition in test [2] worked out at 57%. Regarding `O=C(Nc1ccccc1C(=O)N[C@H](CC[C@H](O)[C@H](Cc1ccccc1)NC(=O)c1ccccc1NC(=O)OCc1ccccn1)Cc1ccccc1)OCc1ccccn1`, in test [1], the half-maximal inhibitory concentration (IC50) was 14 nM.

`CC(C)C(NC(=O)OCc1ccccc1)C(=O)N[C@H](CC[C@@H](O)[C@H](Cc1ccccc1)NC(=O)C(NC(=O)OCc1ccccc1)C(C)C)Cc1ccccc1` (stereo not given in full): the IC50 in test [1] was 200 nM.

In test [1], `CC(C)C(NC(=O)OCc1ccccc1)C(=O)N[C@H](CC[C@H](O)[C@H](Cc1ccccc1)NC(=O)C(NC(=O)OCc1ccccc1)C(C)C)Cc1ccccc1` (stereo not given in full) came in with an IC50 of over 1 nM. In test [2], this molecule had an inhibition of 62%. On to `O=C(N[C@H](CC[C@H](O)[C@H](Cc1ccccc1)NC(=O)c1ccccc1NS(=O)(=O)c1ccccn1)Cc1ccccc1)c1ccccc1NS(=O)(=O)c1ccccn1`, for which the IC50 in test [1] was over 3000 nM.

The IC50 is the concentration needed to halve the response being measured. A higher IC50 goes with weaker potency. The term inhibition denotes the percentage by which the read-out fell short of the control. Low readings indicate little suppression, high ones strong suppression.
